Source: patent publication US6680025B2, “Device and method for photoactivation” (Cerus Corporation, priority 1989, dated 2004)

Assays:
[1] = tested on: HIV 115-mer; experiment: Effect of unirradiated isopsoralen on PCR; assay type: biochemical; conditions: for Counts (CPM) of PCR product: 30 cycles, 0 μg/ml gave 42200
Method: To systematically evaluate the effect of the presence of increasing concentrations of isopsoralen on PCR, AMDMIP (0, 100, 200, 400 μg/ml) was added to 107 copies of HIV 115-mer as template. PCR was then carried out for 30 cycles in the presence of α-^32P-dCTP. The PCR product was run on denaturing polyacrylamide gel and autoradiographed. The bands were thereafter cut and counted.

[2] = tested on: HIV 115-mer; experiment: Crosslinkable Oligonucleotide Probe Analysis (COP) after sterilization; assay type: biochemical
Method: Preparation of Samples: The HIV 115-mer system with primers SK-38/SK-39 was used for the experiment (see FIG. 36, “HIV Oligonucleotide System”). Two types of starting template were used: previously amplified 115-mer or genomic DNA, isolated from an individual known to be infected with HIV (MACS sample). For previously amplified 115-mer between 10^5 and 10^6 copies were used for starting template. For the genomic (MACS) sample, approximately 1 μg (3×10^5 copies) of genomic DNA were used. Two PCR samples were prepared for each type of template then amplification was carried out for either 20 or 30 cycles. One of the two PCR samples contained AMDMIP at 200 μg/ml while the other was AMDMIP free. Following amplification, the AMDMIP containing samples were divided and half were irradiated. Analysis (OH or COP) was then done on the three samples from each set (AMDMIP free, AMDMIP unirradiated, and AMDMIP irradiated) for each cycle number. The AMDMIP free samples served as control, the AMDMIP unirradiated sampes adressed the effect of non-covalently bound AMDMIP on detection, and AMDMIP irradiated samples addressed the effect of covalently bound AMDMIP on detection.
COP and OH assays were performed a follows. 10 μl of the PCR reaction mixture was added to 3.3 μl of “probe mix” [5′-labelled SK-19 (normal or monoadducted) at 10^−8 M containing EDTA and an appropriate salt mixtures], overlaid with 30-40 μl of light mineral oil, then heated to 95-100° C. for 5 minutes. For COP, the hybridization mixture as placed in the PTI device at 56° C. and irradiated for 15 minutes. Following this, loading dyes (containing urea or formamide) were added, the sample heated to 95-100° C. for 5 minutes, quick chilled on wet ice, then loaded on a denaturing PAGE gel followed by electrophoresis under denaturing conditions. For OH reactions, the hybridization mixture was incubated at 56° C. for 30 minutes, loading dyes added, and aliquots loaded directly into a native PAGE gel followed by electrophoresis under native conditions. 1. Samples 1-6 contain previously amplified 115-mer that was re-amplified either 20 (samples 1,3,5) or 30 (Samples 2,4,6) cycles then detected by COP. Samples 1 & 2 are controls (without AMDMIP); samples 3 and 4 are (with AMDMIP and with light) sterilized samples; samples 5 & 6 are (with AMDMIP but without light) controls. The bands corresponding to amplified 115-mer crosslinked to labelled 41-mer probe (SK-19 MA) are the upper bands in FIG. 46. Samples 11-16 are the same series except the MACS sample was used as template.

[3] = tested on: E. coli polymerase I; conditions: nick-translating a double-stranded template; cited from earlier work

With `Cc1oc2ccc3c(C)cc(=O)oc3c2c1CN` [AMDMIP, 4′-Aminomethyl-4,5′-dimethylisopsoralen] as the compound, how does the “concentration compatible with the PCR system” value ([1]; HIV 115-mer system) read?
The value was “up to 400 μg/ml”.

And the “Counts (CPM) of PCR product” value ([1]; unirradiated AMDMIP 100 μg/ml)?
Its value is 77200 CPM.

What about the “Counts (CPM) of PCR product” value ([1]; unirradiated AMDMIP 200 μg/ml) of the same compound?
Its value is 77500 CPM.

What about the “Counts (CPM) of PCR product” value ([1]; unirradiated AMDMIP 400 μg/ml) of the same compound?
Its value is 69400 CPM.

What about the “COP hybrid band CPM” value ([2]; sample 3: previously amplified 115-mer, 20 cycles, AMDMIP 200 μg/ml with light) of the same compound?
The value was 1944 CPM.

What about the “COP hybrid band CPM as % of AMDMIP-free control” value ([2]; sample 3: previously amplified 115-mer, 20 cycles, AMDMIP with light) of the same compound?
Its value is 62%.

What about the “COP hybrid band CPM” value ([2]; sample 4: previously amplified 115-mer, 30 cycles, AMDMIP 200 μg/ml with light) of the same compound?
The value was 36452 CPM.

And the “COP hybrid band CPM as % of AMDMIP-free control” value ([2]; sample 4: previously amplified 115-mer, 30 cycles, AMDMIP with light)?
Its value is 83%.

What about the “COP hybrid band CPM” value ([2]; sample 5: previously amplified 115-mer, 20 cycles, AMDMIP 200 μg/ml without light) of the same compound?
Its value is 4480 CPM.

What about the “COP hybrid band CPM as % of AMDMIP-free control” value ([2]; sample 5: previously amplified 115-mer, 20 cycles, AMDMIP without light) of the same compound?
Its value is 144%.

And the “COP hybrid band CPM” value ([2]; sample 6: previously amplified 115-mer, 30 cycles, AMDMIP 200 μg/ml without light)?
Its value is 39596 CPM.

And the “COP hybrid band CPM as % of AMDMIP-free control” value ([2]; sample 6: previously amplified 115-mer, 30 cycles, AMDMIP without light)?
Its value is 90%.

And the “COP hybrid band CPM” value ([2]; sample 13: MACS genomic DNA, 20 cycles, AMDMIP 200 μg/ml with light)?
The value was 460 CPM.

And the “COP hybrid band CPM as % of AMDMIP-free control” value ([2]; sample 13: MACS genomic DNA, 20 cycles, AMDMIP with light)?
The value was 52%.

And the “COP hybrid band CPM” value ([2]; sample 14: MACS genomic DNA, 30 cycles, AMDMIP 200 μg/ml with light)?
The value was 41777 CPM.

What about the “COP hybrid band CPM as % of AMDMIP-free control” value ([2]; sample 14: MACS genomic DNA, 30 cycles, AMDMIP with light) of the same compound?
Its value is 78%.

And the “COP hybrid band CPM” value ([2]; sample 15: MACS genomic DNA, 20 cycles, AMDMIP 200 μg/ml without light)?
The value was 464 CPM.

What about the “COP hybrid band CPM as % of AMDMIP-free control” value ([2]; sample 15: MACS genomic DNA, 20 cycles, AMDMIP without light) of the same compound?
Its value is 53%.

What about the “COP hybrid band CPM” value ([2]; sample 16: MACS genomic DNA, 30 cycles, AMDMIP 200 μg/ml without light) of the same compound?
The value was 35176 CPM.

What about the “COP hybrid band CPM as % of AMDMIP-free control” value ([2]; sample 16: MACS genomic DNA, 30 cycles, AMDMIP without light) of the same compound?
Its value is 66%.

With `Cc1cc2occc2c2oc(=O)ccc12` [MIP, 5-Methylisopsoralen] as the compound, how does the “inhibition of polymerase by covalently bound monoadducts” value [3] read?
The value was “not inhibited”.
